# Assay results taken from paper PMC5362750, “Discovery of Potent, Selective, and Orally Bioavailable Small-Molecule Modulators of the Mediator Complex-Associated Kinases CDK8 and CDK19” (Journal of Medicinal Chemistry, 2016).
# Assays:
# [1] = biological target: T1, TAO3 (Homo sapiens, UniProt Q9H2K8); test: Kinase panel (Millipore); format: biochemical; conditions: 1 µM, ATP at Km
# T1 construct: purchased Millipore (KinaseProfiler) kinase panel
# [2] = biological target: T2, RET (Homo sapiens, UniProt P07949); test: Kinase panel (Millipore); format: biochemical; conditions: 1 µM, ATP at Km
# T2 construct: purchased Millipore (KinaseProfiler) kinase panel
# [3] = biological target: T3, EPHB2 (Homo sapiens, UniProt P29323); test: Kinase panel (Millipore); format: biochemical; conditions: 1 µM, ATP at Km
# T3 construct: purchased Millipore (KinaseProfiler) kinase panel
# [4] = biological target: T4, Ca2+ channel (N) (Rattus norvegicus, UniProt Q02294); test: CEREP binding assay; conditions: antagonist radioligand, read-out: % Inhibition of Control Specific Binding
# T4 construct: CEREP
# [5] = biological target: CDK7/CYCLINH/MAT1 (Homo sapiens, UniProt P50613); conditions: 1 µM, ATP at Km
# [6] = 120 min, pH 7.4
# [7] = biological target: T5, BLT1 (LTB4) (h) (Homo sapiens, UniProt Q15722); test: CEREP binding assay; conditions: agonist radioligand, read-out: % Inhibition of Control Specific Binding
# T5 construct: purchased Millipore (KinaseProfiler) kinase panel
# [8] = biological target: ABL (Homo sapiens, UniProt P00519); test: Kinase panel (Millipore); format: biochemical; conditions: 1 µM, ATP at Km
# [9] = biological target: T6, TAO1 (Homo sapiens, UniProt Q7L7X3); test: Kinase panel (Millipore); format: biochemical; conditions: 1 µM, ATP at Km
# T6 construct: purchased Millipore (KinaseProfiler) kinase panel
# [10] = biological target: T7, PRK2 (Homo sapiens, UniProt Q16513); test: Kinase panel (Millipore); format: biochemical; conditions: 1 µM, ATP at Km
# T7 construct: purchased Millipore (KinaseProfiler) kinase panel
# [11] = biological target: CCK2 (CCKB) (h) (Homo sapiens, UniProt P32239); test: CEREP binding assay; conditions: agonist radioligand, read-out: % Inhibition of Control Specific Binding
# [12] = biological target: D2S (h) (Homo sapiens, UniProt P14416); test: biochemical; conditions: read-out: % Inhibition of Control Specific Binding
# [13] = biological target: T8, TAO2 (Homo sapiens, UniProt Q9UL54); test: Kinase panel (Millipore); format: biochemical; conditions: 1 µM, ATP at Km
# T8 construct: purchased Millipore (KinaseProfiler) kinase panel
# [14] = biological target: ARG (Homo sapiens, UniProt P42684); test: Kinase panel (Millipore); format: biochemical; conditions: 1 µM, ATP at Km
# [15] = biological target: T9, SGK3 (Homo sapiens, UniProt Q96BR1); test: Kinase panel (Millipore); format: biochemical; conditions: 1 µM, ATP at Km
# T9 construct: purchased Millipore (KinaseProfiler) kinase panel
# [16] = biological target: T10, PDGFRALPHA (Homo sapiens, UniProt P16234); test: Kinase panel (Millipore); format: biochemical; conditions: 1 µM, ATP at Km
# T10 construct: purchased Millipore (KinaseProfiler) kinase panel
# [17] = biological target: CAMKIIGAMMA (Homo sapiens, UniProt Q13555); test: Kinase panel (Millipore); format: biochemical; conditions: 1 µM, ATP at Km
# [18] = biological target: ABL(Y253F) (Homo sapiens, UniProt P00519, Y253F); conditions: 1 µM, ATP at Km
# [19] = system: CK1(Y); test: Kinase panel (Millipore); format: biochemical; conditions: 1 µM, ATP at Km
# [20] = biological target: T11, MCH1 (h) (Homo sapiens, UniProt Q99705); test: CEREP binding assay; conditions: agonist radioligand, read-out: % Inhibition of Control Specific Binding
# T11 construct: purchased Millipore (KinaseProfiler) kinase panel
# [21] = biological target: T12, TAK1 (Homo sapiens, UniProt O43318); test: Kinase panel (Millipore); format: biochemical; conditions: 1 µM, ATP at Km
# T12 construct: purchased Millipore (KinaseProfiler) kinase panel
# [22] = biological target: CKIT(V560G) (Homo sapiens, UniProt P10721, V560G); conditions: 1 µM, ATP at Km
# [23] = biological target: T13, MER (Homo sapiens, UniProt Q12866); test: Kinase panel (Millipore); format: biochemical; conditions: 1 µM, ATP at Km
# T13 construct: purchased Millipore (KinaseProfiler) kinase panel
# [24] = biological target: T14, TBK1 (Homo sapiens, UniProt Q9UHD2); test: Kinase panel (Millipore); format: biochemical; conditions: 1 µM, ATP at Km
# T14 construct: purchased Millipore (KinaseProfiler) kinase panel
# [25] = in vivo; conditions: NCr athymic, mouse, po, 30 mg/kg
# [26] = biological target: T15, EPHA8 (Homo sapiens, UniProt P29322); test: Kinase panel (Millipore); format: biochemical; conditions: 1 µM, ATP at Km
# T15 construct: purchased Millipore (KinaseProfiler) kinase panel
# [27] = biological target: ERalpha (h) (Homo sapiens, UniProt P03372); test: CEREP binding assay; conditions: agonist fluoligand, read-out: % Inhibition of Control Specific Binding
# [28] = biological target: cMET (Y1248C) (Homo sapiens, UniProt P08581, Y1230C); conditions: 1 µM, ATP at Km
# [29] = biological target: cMET (Y1248H) (Homo sapiens, UniProt P08581, Y1230H); conditions: 1 µM, ATP at Km
# [30] = biological target: CK2 (Homo sapiens, UniProt P68400); conditions: 1 µM, ATP at Km
# [31] = biological target: T16, PRKCQ (Homo sapiens, UniProt Q04759); test: Kinase panel (Millipore); format: biochemical; conditions: 1 µM, ATP at Km
# T16 construct: purchased Millipore (KinaseProfiler) kinase panel
# [32] = biological target: FLT3(D835Y) (Homo sapiens, UniProt P36888, D835Y); conditions: 1 µM, ATP at Km
# [33] = biological target: T17, LOK (Homo sapiens, UniProt O94804); test: Kinase panel (Millipore); format: biochemical; conditions: 1 µM, ATP at Km
# T17 construct: purchased Millipore (KinaseProfiler) kinase panel
# [34] = biological target: TIE2(Y897S) (Homo sapiens, UniProt Q02763, Y897S); conditions: 1 µM, ATP at Km
# [35] = biological target: IRAK4 (Homo sapiens, UniProt Q9NWZ3); test: Kinase panel (Millipore); format: biochemical; conditions: 1 µM, ATP at Km
# [36] = biological target: 5-HT4e (h) (Homo sapiens, UniProt Q13639); test: biochemical; conditions: read-out: % Inhibition of Control Specific Binding
# T7 sequence (Q16513 whole entry): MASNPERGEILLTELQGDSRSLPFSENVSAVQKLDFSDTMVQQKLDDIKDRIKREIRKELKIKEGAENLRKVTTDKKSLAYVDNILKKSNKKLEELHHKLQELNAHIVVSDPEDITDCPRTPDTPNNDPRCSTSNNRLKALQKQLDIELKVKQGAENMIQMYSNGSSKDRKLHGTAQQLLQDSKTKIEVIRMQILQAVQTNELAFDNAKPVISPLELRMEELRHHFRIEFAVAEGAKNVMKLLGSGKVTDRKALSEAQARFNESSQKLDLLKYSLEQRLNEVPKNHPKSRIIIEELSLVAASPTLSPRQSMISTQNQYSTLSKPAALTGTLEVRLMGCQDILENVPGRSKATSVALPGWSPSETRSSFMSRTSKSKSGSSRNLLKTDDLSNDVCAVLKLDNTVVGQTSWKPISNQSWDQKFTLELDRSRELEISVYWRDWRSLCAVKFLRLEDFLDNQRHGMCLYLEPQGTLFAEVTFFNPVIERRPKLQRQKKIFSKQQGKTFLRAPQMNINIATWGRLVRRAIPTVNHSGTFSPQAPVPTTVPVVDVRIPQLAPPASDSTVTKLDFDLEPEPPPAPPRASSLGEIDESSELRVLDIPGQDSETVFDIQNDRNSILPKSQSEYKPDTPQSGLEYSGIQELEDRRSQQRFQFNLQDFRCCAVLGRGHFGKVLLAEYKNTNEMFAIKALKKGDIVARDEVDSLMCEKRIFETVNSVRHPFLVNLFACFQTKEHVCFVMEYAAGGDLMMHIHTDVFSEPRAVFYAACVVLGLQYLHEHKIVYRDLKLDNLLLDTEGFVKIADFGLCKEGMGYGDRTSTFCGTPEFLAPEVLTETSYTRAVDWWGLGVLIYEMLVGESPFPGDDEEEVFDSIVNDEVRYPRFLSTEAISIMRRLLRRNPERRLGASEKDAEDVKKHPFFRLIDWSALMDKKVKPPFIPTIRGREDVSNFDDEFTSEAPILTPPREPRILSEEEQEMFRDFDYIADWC
# Chain of ERalpha (h) (P03372 whole entry): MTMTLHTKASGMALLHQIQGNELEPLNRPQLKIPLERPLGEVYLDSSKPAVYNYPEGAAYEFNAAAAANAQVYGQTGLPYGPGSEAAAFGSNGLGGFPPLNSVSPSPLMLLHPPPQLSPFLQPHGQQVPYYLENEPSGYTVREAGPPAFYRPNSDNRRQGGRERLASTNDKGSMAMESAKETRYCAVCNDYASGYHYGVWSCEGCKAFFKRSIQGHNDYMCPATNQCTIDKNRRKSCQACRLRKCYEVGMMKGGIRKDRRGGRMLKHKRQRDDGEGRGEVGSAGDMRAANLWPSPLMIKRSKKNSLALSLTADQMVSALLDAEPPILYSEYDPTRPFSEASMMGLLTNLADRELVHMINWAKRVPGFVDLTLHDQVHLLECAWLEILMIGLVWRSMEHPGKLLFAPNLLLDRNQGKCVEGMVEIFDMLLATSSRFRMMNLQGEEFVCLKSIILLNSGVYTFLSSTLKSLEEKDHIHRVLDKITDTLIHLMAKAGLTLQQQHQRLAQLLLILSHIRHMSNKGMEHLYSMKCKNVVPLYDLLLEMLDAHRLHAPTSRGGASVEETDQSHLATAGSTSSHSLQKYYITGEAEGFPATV
# T13 sequence (Q12866 21-999): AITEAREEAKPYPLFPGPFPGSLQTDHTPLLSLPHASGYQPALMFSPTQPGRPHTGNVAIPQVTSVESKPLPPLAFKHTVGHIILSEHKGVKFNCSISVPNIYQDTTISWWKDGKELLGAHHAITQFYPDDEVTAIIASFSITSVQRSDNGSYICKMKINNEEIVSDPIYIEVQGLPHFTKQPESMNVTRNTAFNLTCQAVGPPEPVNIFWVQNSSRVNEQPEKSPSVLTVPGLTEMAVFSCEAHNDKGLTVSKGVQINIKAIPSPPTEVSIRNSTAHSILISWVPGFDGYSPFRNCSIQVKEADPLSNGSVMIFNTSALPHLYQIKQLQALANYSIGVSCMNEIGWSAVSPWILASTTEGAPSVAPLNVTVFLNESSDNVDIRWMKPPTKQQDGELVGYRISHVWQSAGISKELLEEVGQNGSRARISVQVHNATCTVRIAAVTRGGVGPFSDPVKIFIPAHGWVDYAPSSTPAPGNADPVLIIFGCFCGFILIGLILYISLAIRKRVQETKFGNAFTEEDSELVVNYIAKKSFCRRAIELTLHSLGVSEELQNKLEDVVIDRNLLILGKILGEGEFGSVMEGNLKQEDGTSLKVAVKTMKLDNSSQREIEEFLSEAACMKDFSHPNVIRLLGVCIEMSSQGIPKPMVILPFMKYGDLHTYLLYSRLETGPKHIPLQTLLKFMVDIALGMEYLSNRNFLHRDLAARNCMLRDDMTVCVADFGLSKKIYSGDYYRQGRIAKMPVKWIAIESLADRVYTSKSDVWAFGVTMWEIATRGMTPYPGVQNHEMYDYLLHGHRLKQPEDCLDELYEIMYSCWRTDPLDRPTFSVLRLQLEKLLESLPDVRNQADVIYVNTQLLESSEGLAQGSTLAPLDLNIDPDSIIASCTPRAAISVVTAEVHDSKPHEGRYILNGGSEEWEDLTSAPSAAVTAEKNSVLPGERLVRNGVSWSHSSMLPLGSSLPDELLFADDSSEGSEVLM
# T9 sequence (Q96BR1 whole entry): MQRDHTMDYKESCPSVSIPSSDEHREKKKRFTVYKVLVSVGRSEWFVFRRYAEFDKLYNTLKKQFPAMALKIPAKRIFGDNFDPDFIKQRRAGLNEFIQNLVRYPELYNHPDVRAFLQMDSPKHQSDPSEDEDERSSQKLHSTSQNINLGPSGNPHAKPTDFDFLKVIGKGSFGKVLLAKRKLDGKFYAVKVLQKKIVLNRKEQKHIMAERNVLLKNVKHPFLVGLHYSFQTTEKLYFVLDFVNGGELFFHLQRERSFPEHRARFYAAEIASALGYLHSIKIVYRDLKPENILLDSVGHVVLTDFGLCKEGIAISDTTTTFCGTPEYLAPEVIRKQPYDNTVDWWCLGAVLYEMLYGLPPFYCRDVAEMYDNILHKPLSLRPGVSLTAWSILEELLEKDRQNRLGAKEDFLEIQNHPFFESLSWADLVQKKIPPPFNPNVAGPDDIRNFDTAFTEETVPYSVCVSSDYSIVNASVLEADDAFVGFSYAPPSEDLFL
# T15 sequence (P29322 28-1005): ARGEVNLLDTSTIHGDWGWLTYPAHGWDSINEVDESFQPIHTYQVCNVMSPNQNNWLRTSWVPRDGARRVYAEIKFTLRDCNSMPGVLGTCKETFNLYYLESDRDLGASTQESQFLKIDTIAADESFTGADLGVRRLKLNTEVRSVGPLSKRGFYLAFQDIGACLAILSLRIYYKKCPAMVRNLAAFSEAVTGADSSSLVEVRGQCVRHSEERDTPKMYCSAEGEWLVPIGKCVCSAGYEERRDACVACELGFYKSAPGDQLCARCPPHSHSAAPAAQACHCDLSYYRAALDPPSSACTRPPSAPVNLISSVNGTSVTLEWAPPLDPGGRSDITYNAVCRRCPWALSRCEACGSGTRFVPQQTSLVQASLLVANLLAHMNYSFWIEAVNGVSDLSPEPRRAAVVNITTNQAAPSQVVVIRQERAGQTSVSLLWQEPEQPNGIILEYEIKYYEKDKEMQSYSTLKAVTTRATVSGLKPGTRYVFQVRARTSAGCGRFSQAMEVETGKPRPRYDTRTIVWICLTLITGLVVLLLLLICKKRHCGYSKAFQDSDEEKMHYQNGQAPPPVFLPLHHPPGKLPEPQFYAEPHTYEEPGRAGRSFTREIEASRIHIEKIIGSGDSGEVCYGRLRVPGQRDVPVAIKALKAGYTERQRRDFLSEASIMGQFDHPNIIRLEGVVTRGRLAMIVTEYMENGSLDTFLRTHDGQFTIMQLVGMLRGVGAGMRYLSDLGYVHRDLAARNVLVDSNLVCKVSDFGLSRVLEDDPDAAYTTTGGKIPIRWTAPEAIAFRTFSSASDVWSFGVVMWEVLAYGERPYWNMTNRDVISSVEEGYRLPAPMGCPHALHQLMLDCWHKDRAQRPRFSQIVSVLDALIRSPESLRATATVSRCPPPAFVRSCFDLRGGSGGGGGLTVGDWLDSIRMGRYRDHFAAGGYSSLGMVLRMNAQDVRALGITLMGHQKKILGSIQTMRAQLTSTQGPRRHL
# T17 sequence (O94804 whole entry): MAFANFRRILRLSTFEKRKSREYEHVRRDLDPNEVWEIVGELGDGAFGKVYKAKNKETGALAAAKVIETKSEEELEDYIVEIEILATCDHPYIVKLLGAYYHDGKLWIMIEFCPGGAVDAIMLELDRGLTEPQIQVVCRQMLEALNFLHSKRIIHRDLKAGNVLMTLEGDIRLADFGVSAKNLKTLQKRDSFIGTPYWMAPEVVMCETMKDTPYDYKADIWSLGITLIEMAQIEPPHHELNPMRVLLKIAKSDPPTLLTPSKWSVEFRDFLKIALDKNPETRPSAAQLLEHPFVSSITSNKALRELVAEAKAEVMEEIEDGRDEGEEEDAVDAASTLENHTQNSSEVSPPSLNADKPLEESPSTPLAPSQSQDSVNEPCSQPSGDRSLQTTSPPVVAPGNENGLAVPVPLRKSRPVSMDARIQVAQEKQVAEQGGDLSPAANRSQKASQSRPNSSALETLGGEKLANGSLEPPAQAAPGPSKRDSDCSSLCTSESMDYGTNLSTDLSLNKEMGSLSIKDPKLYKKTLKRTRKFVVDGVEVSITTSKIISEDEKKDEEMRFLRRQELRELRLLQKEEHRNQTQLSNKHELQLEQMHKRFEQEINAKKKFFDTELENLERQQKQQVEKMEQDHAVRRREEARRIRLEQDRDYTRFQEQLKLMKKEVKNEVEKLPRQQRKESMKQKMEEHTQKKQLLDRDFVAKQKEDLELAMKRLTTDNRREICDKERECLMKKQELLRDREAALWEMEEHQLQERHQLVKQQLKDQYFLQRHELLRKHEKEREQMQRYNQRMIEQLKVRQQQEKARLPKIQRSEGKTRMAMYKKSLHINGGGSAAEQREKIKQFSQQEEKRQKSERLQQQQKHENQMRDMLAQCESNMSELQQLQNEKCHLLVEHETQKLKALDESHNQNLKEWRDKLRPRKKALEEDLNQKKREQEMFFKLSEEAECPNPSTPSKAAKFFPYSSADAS
structure (smiles),measurement,setting,value
"Cn1ncc2cc(-c3cnc(N)c(Cl)c3N3CCC4(CCNC4=O)CC3)ccc21 [Compound 109, 8-(2-Amino-3-chloro-5-(1-methyl-1H-indazol-5-yl)pyridin-4-yl)-2,8-diazaspiro[4.5]decan-1-one]",Cl,human,∼0.36 L/h/kg
same,F,human,∼70%
same,Vd,human,∼1.4 L/kg
same,"clearance prediction, allometry with correction by fu and BrW",human,5.72 mL/min/kg
same,"clearance prediction, allometry with correction by fu and MLP",human,8.52 mL/min/kg
same,"clearance prediction, iviv from hepatocytes",human,3.58 mL/min/kg
same,"volume prediction, range of allometry methods",human,1.3 to 1.5 L/kg
same,t1/2,human prediction,∼2.7 h
same,% effect,[1],-11%
same,% effect,[2],7%
same,% effect,[3],-3%
same,inhibition at 10 µM,[4],-12%
same,% effect,[5],5%
same,Solubility Kinetic,[6],137 µM
same,inhibition at 10 µM,[7],16%
same,% effect,[8],-15%
same,% effect,[9],6%
same,% effect,[10],1%
same,inhibition at 10 µM,[11],0%
same,inhibition at 10 µM,[12],-5%
same,% effect,[13],2%
same,% effect,[14],5%
same,% effect,[15],13%
same,% effect,[16],10%
same,% effect,[17],8%
same,% effect,[18],1%
same,% effect,[19],-1%
same,inhibition at 10 µM,[20],34%
same,% effect,[21],-14%
same,% effect,[22],-5%
same,% effect,[23],11%
same,% effect,[24],6%
same,concentration at 1 h,[25]; Free Plasma conc.,523 nM
same,concentration at 2 h,[25]; Free Plasma conc.,240 nM
same,concentration at 6 h,[25]; Free Plasma conc.,29 nM
same,concentration at 24 h,[25]; Free Plasma conc.,3 nM
same,concentration at 1 h,[25]; Free tumor conc.,171 nM
same,concentration at 2 h,[25]; Free tumor conc.,120 nM
same,concentration at 6 h,[25]; Free tumor conc.,55 nM
same,concentration at 24 h,[25]; Free tumor conc.,28 nM
same,concentration at 1 h,[25]; Total Plasma conc.,14900 nM
same,concentration at 2 h,[25]; Total Plasma conc.,6860 nM
same,concentration at 6 h,[25]; Total Plasma conc.,822 nM
same,concentration at 24 h,[25]; Total Plasma conc.,90 nM
same,concentration at 1 h,[25]; Total tumor conc.,4880 nM
same,concentration at 2 h,[25]; Total tumor conc.,3420 nM
same,concentration at 6 h,[25]; Total tumor conc.,1570 nM
same,concentration at 24 h,[25]; Total tumor conc.,796 nM
same,% effect,[26],-9%
same,inhibition at 10 µM,[27],0%
same,% effect,[28],-3%
same,% effect,[29],-5%
same,% effect,[30],3%
same,% effect,[31],-13%
same,% effect,[32],21%
same,% effect,[33],11%
same,% effect,[34],0%
same,% effect,[35],6%
same,inhibition at 10 µM,[36],-3%
